Results taken from patent US9694027B2, “Pyrazole derivative and use thereof for medical purposes” (KISSEI PHARMACEUTICAL CO. LTD., priority 2012, dated 2017).

Test system: rat model of low-fiber diet-induced constipation
Assay: Rat model of low-fiber diet-induced constipation (Example 2)
Conditions: for Fecal weight within 24 hours after the administration: followed by mixed carbohydrate, n=4, Control group 1 0.53, Normal feed group 8.33
Protocol: Compound 2 was weighed and was dissolved in distilled water at preparation concentrations of 3, 10 and 30 mg/mL as the free drug to prepare test compounds.
0.5% methylcellulose (0.5% MC) was used as a vehicle for preparation of lubiprostone. Lubiprostone was weighed and was suspended in 0.5% MC at preparation concentrations of 1, 3 and 10 mg/mL to prepare control substances.
Magnesium sulfate (MgSO4) (Wako pure chemical) was weighed and was dissolved in distilled water at a preparation concentrations of 200 mg/mL to prepare a positive control substance.
A soluble starch, sucrose and lactose monohydrate were weighed at a rate of 6:3:1 and were dissolved in distilled water which was approximately 80% of the amounts of preparation on heating, and then the mixture was added with distilled water to prepare 0.4 g/mL solution of mixed carbohydrate.
A low-fiber diet was prepared based on the literature (Kakino et al. BMC Complementary and Alternative Medicine 2010, 10: 68).
Rats were fed on the low-fiber diet for 1-2 weeks to induce constipation.
Compound 2 (3 mg/kg, 10 mg/kg or 30 mg/kg as free drug), lubiprostone (1 mg/kg, 3 mg/kg or 10 mg/kg), MgSO4 (2000 mg/kg) or a vehicle (distilled water: Control group 1, 0.5% MC: Control group 2) was administered orally at around 9 a.m. using a 1 mL glass syringe and a stomach tube. Then, 0.4 g/mL solution of mixed carbohydrate was administered orally at 2 mL/body to Control group 1 and the groups administered with Compound 2. Distilled water was administered to the normal feed group.
The sum of the fecal weights at the collection times was set as the fecal weight at 24 hours after the administration.
The statistical analysis was made by testing the uniformity of variance using Bartlett's method, and multiple comparison between Control group 1 and the group administered with Compound 2 or Control group 2 and the group administered with lubiprostone was made using Dunnett's method when variance was uniform respectively, and multiple comparison was made using Steel's method when variance was not uniform. In each case, significance level<5% was considered as significant difference.

In the case of `Cc1cc(OCCCNCC(C)(C)C(N)=O)ccc1Cc1c(O[C@@H]2O[C@H](CO)[C@@H](O)[C@H](O)[C@H]2O)n[nH]c1C(C)C.Cc1cc(OCCCNCC(C)(C)C(N)=O)ccc1Cc1c(O[C@@H]2O[C@H](CO)[C@@H](O)[C@H](O)[C@H]2O)n[nH]c1C(C)C.O=C(O)CCCCCCCCC(=O)O` [Compound 2, bis[3-(3-{4-[3-(β-D-glucopyranosyloxy)-5-isopropyl-1H-pyrazol-4-ylmethyl]-3-methylphenoxy}propylamino)-2,2-dimethylpropionamide]monosebacate], the “Fecal weight within 24 hours after the administration” value (“Fecal weight within 24 hours” for short) (3 mg/kg as free drug oral) is reported as 1.20 g, the “Fecal weight within 24 hours” value (10 mg/kg as free drug oral) is reported as 4.20 g and the “Fecal weight during 24 hours versus Control group” value (10 mg/kg or more, versus Control group 1, significance level <5%) is reported as “significantly higher than in each Control group”. The “Fecal weight within 24 hours” value (30 mg/kg as free drug oral) was 4.93 g and the “Dose dependence of fecal weight during 24 hours after the administration” value (oral) was “dose-dependently increased”.
